The record followed here is patent US9868720B2 (Genentech, Inc., priority 2013, dated 2018).

pKi: −log10 of the molar value.

DLK kinase (N-terminally GST-tagged DLK, catalytic domain amino acid 1-520), sequence (Q12852 1-520): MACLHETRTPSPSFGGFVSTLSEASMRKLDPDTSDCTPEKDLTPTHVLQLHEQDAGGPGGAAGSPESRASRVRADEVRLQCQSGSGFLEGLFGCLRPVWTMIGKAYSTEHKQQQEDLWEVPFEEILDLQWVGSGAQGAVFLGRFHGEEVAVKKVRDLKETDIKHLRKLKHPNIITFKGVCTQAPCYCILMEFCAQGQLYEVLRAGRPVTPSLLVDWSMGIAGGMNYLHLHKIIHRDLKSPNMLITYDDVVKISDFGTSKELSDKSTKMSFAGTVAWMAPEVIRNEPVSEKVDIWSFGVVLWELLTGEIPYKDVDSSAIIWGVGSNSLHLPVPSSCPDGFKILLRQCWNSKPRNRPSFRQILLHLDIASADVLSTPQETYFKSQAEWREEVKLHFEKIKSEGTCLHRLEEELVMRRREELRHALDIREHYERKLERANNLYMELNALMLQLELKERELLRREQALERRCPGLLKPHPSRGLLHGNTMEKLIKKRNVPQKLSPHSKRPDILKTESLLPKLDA

This assay addresses DLK kinase (N-terminally GST-tagged DLK, catalytic domain amino acid 1-520) (Homo sapiens (Human), UniProt Q12852). The assay can be described thus: DLK TR-FRET assay. The class given is biochemical. The settings on record: 30 μM ATP, MKK4 K131M substrate, read-out: DLK HTRF (Ki). The method in brief: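 5 nM GST-tagged DLK catalytic domain (aa 1-520) with 40 nM HIS-MKK4 K131M substrate and 30 μM ATP in HEPES pH 7.5/MgCl2 buffer. Compounds tested in 1:3 serial dilution from 20 uM, 60 min at ambient temperature. EDTA quench, then 3 h with Eu-anti-phospho-MKK4 and D2-anti-HIS before TR-FRET read (665/615 nm).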
(In general: TR-FRET usually uses a lanthanide donor and a delayed reading to cut background.)
What is called pKi is the negative decadic logarithm of the Ki, by convention in mol/L. `O=C(C(F)F)N1CCCC(c2cc(Nc3cc(C(F)(F)F)ccn3)nc(N3CCC(F)(F)C3)n2)C1` (stereo not shown) [Example 178, 1-{3-[2-(3,3-Difluoro-pyrrolidin-1-yl)-6-(4-trifluoromethyl-pyridin-2-ylamino)-pyrimidin-4-yl]-piperidin-1-yl}-2,2-difluoro-ethanone]: the negative-log Ki (pKi) is 7.57. Under `COc1ccnc(Nc2cc(C3CCN(C(C)=O)C3)nc(N3CCCC3C)n2)c1` (stereo not shown) [Example 129, 1-{3-[6-(4-Methoxy-pyridin-2-ylamino)-2-(2-methyl-pyrrolidin-1-yl)-pyrimidin-4-yl]-pyrrolidin-1-yl}-ethanone] stands 7.00; under `C[C@@H]1CC[C@@H](C)N1c1nc(Nc2cc(C(F)(F)F)ccn2)cc(C2CCNCC2)n1` [Example 143, [2-((2R,5R)-2,5-Dimethyl-pyrrolidin-1-yl)-6-piperidin-4-yl-pyrimidin-4-yl]-(4-trifluoromethyl-pyridin-2-yl)-amine], 7.98.

Regarding `CC(=O)N1CCC(c2cc(Nc3cc(C(F)(F)F)ccn3)nc(N3CC(F)C(F)C3)n2)CC1` (stereo not shown) [Example 250, 1-{4-[2-(3,4-Difluoro-pyrrolidin-1-yl)-6-(4-trifluoromethyl-pyridin-2-ylamino)-pyrimidin-4-yl]-piperidin-1-yl}-ethanone], the pKi was 7.57. Under `CN1CCCC(c2cc(Nc3cc(C(F)(F)F)ccn3)nc(N3CC4CCC(C3)O4)n2)C1` (stereo not shown) [Example 329, [6-(1-Methyl-piperidin-3-yl)-2-(8-oxa-3-aza-bicyclo[3.2.1]oct-3-yl)-pyrimidin-4-yl]-(4-trifluoro-methyl-pyridin-2-yl)-amine] stands 7.15. `C[C@@H]1CCCN1c1nc(Nc2cc(C(F)(F)F)ccn2)cc(C2CCN(S(C)(=O)=O)CC2)n1` [Example 330, [6-(1-Methanesulfonyl-piperidin-4-yl)-2-((R)-2-methyl-pyrrolidin-1-yl)-pyrimidin-4-yl]-(4-trifluoromethyl-pyridin-2-yl)-amine]: the pKi is 7.50. Under `FC(F)(F)c1ccnc(Nc2cc(C3CCOCC3)nc(N3C4CCC3COC4)n2)c1` [Example 251, [2-(3-Oxa-8-aza-bicyclo-[3.2.1]oct-8-yl)-6-(tetrahydro-pyran-4-yl)-pyrimidin-4-yl]-(4-trifluoro-methyl-pyridin-2-yl)-amine] stands 6.74; under `CC(=O)N1CCC(c2cc(Nc3cc(C(F)(F)F)ccn3)nc(N3CCC[C@H]3C)n2)CC1` [Example 175, 1-{4-[2-((R)-2-Methyl-pyrrolidin-1-yl)-6-(4-trifluoromethyl-pyridin-2-ylamino)-pyrimidin-4-yl]-piperidin-1-yl}-ethanone], 8.66; under `FC1(F)CN(c2nc(Nc3cc(C(F)(F)F)ccn3)cc(C3CCN(CC4CCOCC4)C3)n2)C1` (stereo not shown) [Example 307, {2-(3,3-Difluoro-azetidin-1-yl)-6-[1-(tetrahydro-pyran-4-ylmethyl)-pyrrolidin-3-yl]-pyrimidin-4-yl}-(4-trifluoromethyl-pyridin-2-yl)-amine], 7.50. Under `C[C@@H]1CCCN1c1nc(Nc2cc(C(F)(F)F)ccn2)cc(-c2ccc(=O)n(C)c2)n1` [Example 331, 1-Methyl-5-[2-((R)-2-methyl-pyrrolidin-1-yl)-6-(4-trifluoromethyl-pyridin-2-ylamino)-pyrimidin-4-yl]-1H-pyridin-2-one] stands 7.74. Turning to `COc1cc(C)ccc1C(=O)N1CCCC(c2cc(Nc3cc(C)ccn3)nc(C)n2)C1` (stereo not shown) [Example 7], the pKi was 7.68. With `CC(=O)N1CC(c2cc(Nc3cc(C(F)(F)F)ccn3)nc(N3CCC[C@H]3C)n2)C1` [Example 375, 1-{3-[2-((R)-2-Methyl-pyrrolidin-1-yl)-6-(4-trifluoromethyl-pyridin-2-ylamino)-pyrimidin-4-yl]-azetidin-1-yl}-ethanone] the figure was 7.95; with `Cc1ccnc(Nc2cc(C3CCN(C(=O)c4ccccc4)CC3)nc(N3CCCC3)n2)c1` [Example 25, {4-[6-(4-Methyl-pyridin-2-ylamino)-2-pyrrolidin-1-yl-pyrimidin-4-yl]-piperidin-1-yl}-phenyl-methanone], 7.30; with `CN1CCCC(c2cc(Nc3cc(C(F)(F)F)ccn3)nc(N3CC(N4CCOCC4)C3)n2)C1` (stereo not shown) [Example 371, [6-(1-Methyl-piperidin-3-yl)-2-(3-morpholin-4-yl-azetidin-1-yl)-pyrimidin-4-yl]-(4-trifluoromethyl-pyridin-2-yl)-amine], 6.20. With `CS(=O)(=O)N1CCCC(c2cc(Nc3cc(C(F)(F)F)ccn3)nc(C3CCOC3)n2)C1` (stereo not shown) [Example 401, [6-(1-Methanesulfonyl-piperidin-3-yl)-2-(tetrahydro-furan-3-yl)-pyrimidin-4-yl]-(4-trifluoromethyl-pyridin-2-yl)-amine] the figure was 6.91; with `CC(=O)N1CCC(c2cc(Nc3cc(C(F)(F)F)ccn3)nc(N3CCC(C(F)(F)F)C3)n2)CC1` (stereo not shown) [Example 206, 1-{4-[6-(4-Trifluoromethyl-pyridin-2-ylamino)-2-(3-trifluoromethyl-pyrrolidin-1-yl)-pyrimidin-4-yl]-piperidin-1-yl}-ethanone], 7.36. For the molecule `CC(=O)N1CCC(C#N)(c2cc(Nc3cc(C(F)(F)F)ccn3)nc(N3CCC(F)(F)C3)n2)CC1` [Example 156, 1-Acetyl-4-[2-(3,3-difluoro-pyrrolidin-1-yl)-6-(4-trifluoromethyl-pyridin-2-ylamino)-pyrimidin-4-yl]-piperidine-4-carbonitrile], the pKi was 7.57. With `O=C(C1CN(c2nc(Nc3cc(C(F)(F)F)ccn3)cc(C3CCOCC3)n2)C1)N1CCOCC1` [Example 260, Morpholin-4-yl-{1-[4-(tetrahydro-pyran-4-yl)-6-(4-trifluoromethyl-pyridin-2-ylamino)-pyrimidin-2-yl]-azetidin-3-yl}-methanone], the pKi was 6.46.

Turning to `CN1CCC(c2cc(Nc3cc(C(F)(F)F)ccn3)nc(N3CC(C#N)C3)n2)C1` (stereo not shown) [Example 328, 1-[4-(1-Methyl-pyrrolidin-3-yl)-6-(4-trifluoromethyl-pyridin-2-ylamino)-pyrimidin-2-yl]-azetidine-3-carbonitrile], the pKi is 6.83.
